Reference: PubChem BioAssay AID248 (DTP/NCI, 2004)
“And” between values parts separate entries of the source, which are not always exact repeats. Identical values can stand only once. Inconclusive results and toxic doses are left out.

Test system: L1210 leukemia ip in BDF1 mice, survival T/C
Assay: NCI In Vivo Anticancer Drug Screen. Data for tumor model L1210 Leukemia (intraperitoneal) in B6D2F1 (BDF1) mice
Details: higher = longer survival
In short: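 Antitumor effect is assessed in tumor-bearing animals. Survival in the compound arm is compared with a vehicle-dosed control arm and expressed as their quotient.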

[1] = endpoint: mean survival time, dose: 100.0 mg/kg/injection, schedule: Q01DX001 (ip), vehicle: saline
[2] = endpoint: mean survival time, dose: 200.0 mg/kg/injection, schedule: Q01DX001 (ip), vehicle: saline
[3] = endpoint: mean survival time, dose: 100.0 mg/kg/injection, schedule: Q04DX003 (ip), vehicle: Klucel (hydroxypropylcellulose) (HPC)
[4] = endpoint: mean survival time, dose: 200.0 mg/kg/injection, schedule: Q04DX003 (ip), vehicle: Klucel (hydroxypropylcellulose) (HPC)
[5] = endpoint: mean survival time, dose: 400.0 mg/kg/injection, schedule: Q04DX003 (ip), vehicle: Klucel (hydroxypropylcellulose) (HPC)
[6] = endpoint: mean survival time, dose: 100.0 mg/kg/injection, schedule: Q01DX009 (ip), vehicle: saline with Tween-80
[7] = endpoint: mean survival time, dose: 200.0 mg/kg/injection, schedule: Q01DX009 (ip), vehicle: saline with Tween-80
[8] = endpoint: mean survival time, dose: 400.0 mg/kg/injection, schedule: Q01DX009 (ip), vehicle: saline with Tween-80
[9] = endpoint: mean survival time, dose: 400.0 mg/kg/injection, schedule: Q01DX001 (ip), vehicle: saline
[10] = endpoint: mean survival time, dose: 100.0 mg/kg/injection, schedule: Q01DX009 (ip), vehicle: Klucel (hydroxypropylcellulose) (HPC)
[11] = endpoint: mean survival time, dose: 200.0 mg/kg/injection, schedule: Q01DX009 (ip), vehicle: Klucel (hydroxypropylcellulose) (HPC)
[12] = endpoint: mean survival time, dose: 100.0 mg/kg/injection, schedule: Q01DX001 (ip), vehicle: other
[13] = endpoint: mean survival time, dose: 200.0 mg/kg/injection, schedule: Q01DX001 (ip), vehicle: other
[14] = endpoint: mean survival time, dose: 400.0 mg/kg/injection, schedule: Q01DX001 (ip), vehicle: other
[15] = endpoint: mean survival time, dose: 400.0 mg/kg/injection, schedule: Q01DX009 (ip), vehicle: Klucel (hydroxypropylcellulose) (HPC)

Cc1cc(Cl)cc(CN(C)C)c1O.[Cu+2]
T/C (endpoint: mean survival time, dose: 50.0 mg/kg/injection, schedule: Q01DX001 (ip), vehicle: saline): 97 % of control
T/C [1]: 97 % of control
T/C [2]: 113 % of control

Cc1ccc(Cc2cc(=O)[nH]c(=S)[nH]2)cc1
T/C [3]: 98 % of control
T/C [4]: 93 % of control
T/C [5]: 92 % of control

COc1cc(CC#N)c(OC)cc1CC#N
T/C [6]: 94 % of control
T/C (endpoint: mean survival time, dose: 100.0 mg/kg/injection, schedule: Q04DX003 (ip), vehicle: saline with Tween-80): 89 % of control
T/C [7]: 89 % of control
T/C (endpoint: mean survival time, dose: 200.0 mg/kg/injection, schedule: Q04DX003 (ip), vehicle: saline with Tween-80): 89 % of control
T/C [8]: 99 % of control
T/C (endpoint: mean survival time, dose: 400.0 mg/kg/injection, schedule: Q04DX003 (ip), vehicle: saline with Tween-80): 88 % of control

C#CCn1cnc2c(Cl)ncnc21
T/C [1]: 117 % of control
T/C [2]: 97 % of control
T/C [9]: 103 % of control

Cc1ccc(S(=O)(=O)Nc2c(N)nc(N)nc2-c2ccccc2)cc1
T/C (endpoint: mean survival time, dose: 80.0 mg/kg/injection, schedule: Q01DX001 (ip), vehicle: Klucel (hydroxypropylcellulose) (HPC)): 96 % of control
T/C (endpoint: mean survival time, dose: 160.0 mg/kg/injection, schedule: Q01DX001 (ip), vehicle: Klucel (hydroxypropylcellulose) (HPC)): 94 % of control
T/C (endpoint: mean survival time, dose: 320.0 mg/kg/injection, schedule: Q01DX001 (ip), vehicle: Klucel (hydroxypropylcellulose) (HPC)): 103 % of control

O=C(CCl)Nc1cccc(S(=O)(=O)F)c1
T/C (endpoint: mean survival time, dose: 12.5 mg/kg/injection, schedule: Q01DX009 (ip), vehicle: carboxymethylcellulose (CMC)): 93 % of control
T/C (endpoint: mean survival time, dose: 25.0 mg/kg/injection, schedule: Q01DX009 (ip), vehicle: carboxymethylcellulose (CMC)): 88 % of control
T/C (endpoint: mean survival time, dose: 50.0 mg/kg/injection, schedule: Q01DX009 (ip), vehicle: carboxymethylcellulose (CMC)): 87 % of control
T/C (endpoint: mean survival time, dose: 100.0 mg/kg/injection, schedule: Q04DX003 (ip), vehicle: carboxymethylcellulose (CMC)): 103 % of control

NC(N)=NCCCC(NC(=O)OCc1ccccc1)C(=O)Nc1ccc2ccccc2c1 (stereo not given)
T/C [10]: 102 % of control
T/C [11]: 103 % of control

C=CCNC(=O)NCC=C
T/C (endpoint: mean survival time, dose: 6.25 mg/kg/injection, schedule: Q01DX009 (ip), vehicle: saline): 114 % of control
T/C (endpoint: mean survival time, dose: 6.25 mg/kg/injection, schedule: Q01DX009 (oral), vehicle: saline): 116 % of control
T/C (endpoint: mean survival time, dose: 12.5 mg/kg/injection, schedule: Q01DX009 (ip), vehicle: saline): 105 % of control and 106 % of control
T/C (endpoint: mean survival time, dose: 12.5 mg/kg/injection, schedule: Q01DX009 (oral), vehicle: saline): 110 % of control
T/C (endpoint: mean survival time, dose: 50.0 mg/kg/injection, schedule: Q01DX009 (oral), vehicle: saline): 176 % of control
T/C [1]: 111 % of control
T/C [2]: 114 % of control
T/C (endpoint: mean survival time, dose: 200.0 mg/kg/injection, schedule: Q01DX009 (oral), vehicle: saline): 100 % of control
T/C (endpoint: mean survival time, dose: 300.0 mg/kg/injection, schedule: Q01DX009 (ip), vehicle: saline): 122 % of control
T/C (endpoint: median survival time, dose: 12.5 mg/kg/injection, schedule: Q01DX009 (ip), vehicle: saline): 122 % of control
T/C (endpoint: median survival time, dose: 12.5 mg/kg/injection, schedule: Q01DX009 (sc), vehicle: saline): 116 % of control
T/C (endpoint: median survival time, dose: 50.0 mg/kg/injection, schedule: Q01DX009 (ip), vehicle: saline): 112 % of control and 122 % of control
T/C (endpoint: median survival time, dose: 100.0 mg/kg/injection, schedule: Q01DX001 (ip), vehicle: saline): 105 % of control
T/C (endpoint: median survival time, dose: 100.0 mg/kg/injection, schedule: Q01DX001 (sc), vehicle: saline): 105 % of control
T/C (endpoint: median survival time, dose: 100.0 mg/kg/injection, schedule: Q04DX003 (ip), vehicle: saline): 105 % of control
T/C (endpoint: median survival time, dose: 100.0 mg/kg/injection, schedule: Q04DX003 (sc), vehicle: saline): 111 % of control
T/C (endpoint: median survival time, dose: 200.0 mg/kg/injection, schedule: Q01DX001 (ip), vehicle: saline): 111 % of control
T/C (endpoint: median survival time, dose: 200.0 mg/kg/injection, schedule: Q01DX001 (sc), vehicle: saline): 111 % of control
T/C (endpoint: median survival time, dose: 200.0 mg/kg/injection, schedule: Q01DX009 (ip), vehicle: saline): 100 % of control and 122 % of control
T/C (endpoint: median survival time, dose: 200.0 mg/kg/injection, schedule: Q04DX003 (ip), vehicle: saline): 116 % of control
T/C (endpoint: median survival time, dose: 200.0 mg/kg/injection, schedule: Q04DX003 (sc), vehicle: saline): 116 % of control

CC(=O)CCC(C#N)c1ccccc1 (stereo not given)
T/C (endpoint: mean survival time, dose: 25.0 mg/kg/injection, schedule: Q04DX002 (ip), vehicle: saline): 104 % of control
T/C (endpoint: mean survival time, dose: 50.0 mg/kg/injection, schedule: Q04DX002 (ip), vehicle: saline): 107 % of control
T/C (endpoint: mean survival time, dose: 100.0 mg/kg/injection, schedule: Q04DX002 (ip), vehicle: saline): 93 % of control and 111 % of control

O=P(O)(O)OCC(O)CF (stereo not given)
T/C (endpoint: mean survival time, dose: 2.5 mg/kg/injection, schedule: Q01DX009 (ip), vehicle: saline): 89 % of control
T/C (endpoint: mean survival time, dose: 5.0 mg/kg/injection, schedule: Q01DX009 (ip), vehicle: saline): 93 % of control
T/C (endpoint: mean survival time, dose: 10.0 mg/kg/injection, schedule: Q01DX009 (ip), vehicle: saline): 94 % of control
T/C (endpoint: mean survival time, dose: 44.0 mg/kg/injection, schedule: Q04DX003 (ip), vehicle: saline): 109 % of control
T/C (endpoint: mean survival time, dose: 88.0 mg/kg/injection, schedule: Q04DX003 (ip), vehicle: saline): 100 % of control
T/C (endpoint: mean survival time, dose: 115.5 mg/kg/injection, schedule: Q04DX003 (ip), vehicle: saline): 96 % of control
T/C (endpoint: mean survival time, dose: 175.0 mg/kg/injection, schedule: Q04DX003 (ip), vehicle: saline): 92 % of control

c1ccc(SCc2cccnc2)nc1
T/C [1]: 97 % of control
T/C [2]: 88 % of control
T/C [9]: 94 % of control

Oc1ccccc1C=Nc1ccccc1S.[Co]
T/C [12]: 105 % of control
T/C [13]: 100 % of control
T/C [14]: 105 % of control

CCOC(=O)c1ccccc1NC(OCC)C(=O)c1ccccc1 (stereo not given) (tested in a mixture with another compound)
T/C [1]: 96 % of control
T/C [2]: 97 % of control
T/C [9]: 103 % of control

O=C(NO)N/N=C/c1ccccc1
T/C [12]: 104 % of control
T/C [6]: 104 % of control
T/C (endpoint: mean survival time, dose: 100.0 mg/kg/injection, schedule: Q04DX003 (ip), vehicle: other): 113 % of control
T/C [13]: 98 % of control
T/C [7]: 107 % of control
T/C (endpoint: mean survival time, dose: 200.0 mg/kg/injection, schedule: Q04DX003 (ip), vehicle: other): 95 % of control
T/C [14]: 98 % of control
T/C [8]: 110 % of control
T/C (endpoint: mean survival time, dose: 400.0 mg/kg/injection, schedule: Q04DX003 (ip), vehicle: other): 93 % of control

Cc1cccc(Cl)c1NC(=O)Nc1cccc(C(=O)O)c1
T/C (endpoint: mean survival time, dose: 25.0 mg/kg/injection, schedule: Q01DX009 (ip), vehicle: Klucel (hydroxypropylcellulose) (HPC)): 100 % of control
T/C (endpoint: mean survival time, dose: 50.0 mg/kg/injection, schedule: Q01DX009 (ip), vehicle: Klucel (hydroxypropylcellulose) (HPC)): 87 % of control
T/C [10]: 90 % of control
T/C [11]: 86 % of control
T/C [15]: 91 % of control

c1ccc2c(c1)OB(C1CCCC1)O2
T/C [3]: 95 % of control
T/C [4]: 93 % of control
T/C [5]: 100 % of control

CC(O)C#N (stereo not given)
T/C (endpoint: mean survival time, dose: 0.63 mg/kg/injection, schedule: Q04DX003 (ip), vehicle: saline): 102 % of control
T/C (endpoint: mean survival time, dose: 1.25 mg/kg/injection, schedule: Q04DX003 (ip), vehicle: saline): 115 % of control
T/C (endpoint: mean survival time, dose: 2.5 mg/kg/injection, schedule: Q04DX003 (ip), vehicle: saline): 115 % of control
T/C (endpoint: mean survival time, dose: 5.0 mg/kg/injection, schedule: Q04DX003 (ip), vehicle: saline): 103 % of control

CSc1ccc(NC(=O)C(Br)C(Br)c2ccccc2)cc1 (stereo not given)
T/C [10]: 103 % of control
T/C [11]: 105 % of control
T/C [15]: 102 % of control

C/C=C1\C(=O)C2CCC1C2 (stereo not given)
T/C (endpoint: mean survival time, dose: 100.0 mg/kg/injection, schedule: Q01DX001 (ip), vehicle: carboxymethylcellulose (CMC)): 93 % of control
T/C (endpoint: mean survival time, dose: 200.0 mg/kg/injection, schedule: Q01DX001 (ip), vehicle: carboxymethylcellulose (CMC)): 90 % of control
T/C (endpoint: mean survival time, dose: 400.0 mg/kg/injection, schedule: Q01DX001 (ip), vehicle: carboxymethylcellulose (CMC)): 95 % of control

CCN(CC)CCOC(=O)c1ccc(C(Cl)Cl)cc1
T/C (endpoint: mean survival time, dose: 50.0 mg/kg/injection, schedule: Q01DX009 (ip), vehicle: saline): 88 % of control
T/C (endpoint: mean survival time, dose: 100.0 mg/kg/injection, schedule: Q01DX009 (ip), vehicle: saline): 88 % of control

CCOC(=O)c1cnn(C(N)=O)c1N
T/C [6]: 108 % of control
T/C [7]: 96 % of control
